Test results as given in PubChem BioAssay AID248 (DTP/NCI, 2004).
Inconclusive results and toxic doses are left out. Cut-off read from the data, not from the text of the source: active = T/C of 150% or more; inactive = T/C below 125%.

System: L1210 leukemia ip in BDF1 mice, survival T/C
Test: NCI In Vivo Anticancer Drug Screen. Data for tumor model L1210 Leukemia (intraperitoneal) in B6D2F1 (BDF1) mice
Settings: endpoint: mean survival time, higher = longer survival
Procedure, shortened: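 Ratio derived from survival: compound-dosed mice over vehicle-dosed mice, all bearing a transplantable tumor.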

[1] = dose: 100.0 mg/kg/injection, schedule: Q01DX001 (ip), vehicle: saline with Tween-80
[2] = dose: 200.0 mg/kg/injection, schedule: Q01DX001 (ip), vehicle: saline with Tween-80
[3] = dose: 50.0 mg/kg/injection, schedule: Q01DX009 (ip), vehicle: saline with Tween-80
[4] = dose: 100.0 mg/kg/injection, schedule: Q01DX009 (ip), vehicle: saline with Tween-80
[5] = dose: 200.0 mg/kg/injection, schedule: Q01DX009 (ip), vehicle: saline with Tween-80
[6] = dose: 100.0 mg/kg/injection, schedule: Q04DX003 (ip), vehicle: saline with Tween-80
[7] = dose: 200.0 mg/kg/injection, schedule: Q04DX003 (ip), vehicle: saline with Tween-80
[8] = dose: 100.0 mg/kg/injection, schedule: Q04DX003 (ip), vehicle: Klucel (hydroxypropylcellulose) (HPC)
[9] = dose: 200.0 mg/kg/injection, schedule: Q04DX003 (ip), vehicle: Klucel (hydroxypropylcellulose) (HPC)
[10] = dose: 400.0 mg/kg/injection, schedule: Q04DX003 (ip), vehicle: Klucel (hydroxypropylcellulose) (HPC)
[11] = dose: 100.0 mg/kg/injection, schedule: Q04DX002 (ip), vehicle: Klucel (hydroxypropylcellulose) (HPC)
[12] = dose: 200.0 mg/kg/injection, schedule: Q04DX002 (ip), vehicle: Klucel (hydroxypropylcellulose) (HPC)
[13] = dose: 400.0 mg/kg/injection, schedule: Q04DX002 (ip), vehicle: Klucel (hydroxypropylcellulose) (HPC)
[14] = dose: 100.0 mg/kg/injection, schedule: Q01DX009 (ip), vehicle: Klucel (hydroxypropylcellulose) (HPC)
[15] = dose: 200.0 mg/kg/injection, schedule: Q01DX009 (ip), vehicle: Klucel (hydroxypropylcellulose) (HPC)
[16] = dose: 400.0 mg/kg/injection, schedule: Q01DX009 (ip), vehicle: Klucel (hydroxypropylcellulose) (HPC)
[17] = dose: 50.0 mg/kg/injection, schedule: Q01DX001 (ip), vehicle: saline with Tween-80
[18] = dose: 50.0 mg/kg/injection, schedule: Q01DX001 (ip), vehicle: saline
[19] = dose: 100.0 mg/kg/injection, schedule: Q01DX001 (ip), vehicle: saline
[20] = dose: 200.0 mg/kg/injection, schedule: Q01DX001 (ip), vehicle: saline
[21] = dose: 400.0 mg/kg/injection, schedule: Q01DX001 (ip), vehicle: saline

Measured: T/C

ClCCC1OCCCO1
inactive: dose: 50.0 mg/kg/injection, schedule: Q01DX009 (ip), vehicle: saline + alcohol 96 % of control | dose: 100.0 mg/kg/injection, schedule: Q01DX009 (ip), vehicle: saline + alcohol 100 % of control | dose: 200.0 mg/kg/injection, schedule: Q01DX009 (ip), vehicle: saline + alcohol 96 % of control

CCOC(=O)/C=C(\C)Nc1ncc(Br)cc1Br
inactive: [1] 92 % of control | [2] 96 % of control | dose: 400.0 mg/kg/injection, schedule: Q01DX001 (ip), vehicle: saline with Tween-80 89 % of control

CN(Cc1cnc(N)nc1N)c1ccc(C(=O)O)cc1
inactive: dose: 100.0 mg/kg/injection, schedule: Q01DX001 (ip), vehicle: carboxymethylcellulose (CMC) 90 % of control | dose: 400.0 mg/kg/injection, schedule: Q01DX001 (ip), vehicle: carboxymethylcellulose (CMC) 92 % of control

COc1ccc(C)cc1NC(=O)OCCOc1ccc([N+](=O)[O-])cc1
inactive: [3] 93 % of control | [4] 97 % of control | [5] 93 % of control

CN(C)Cc1c[nH]c2ccsc12
inactive: [6] 98 % of control | [7] 87 % of control

O=C(NCCc1c[nH]c2ccccc12)C(=O)NCCc1c[nH]c2ccccc12
inactive: [8] 108 % of control | [9] 93 % of control | [10] 93 % of control

O=C(O)c1c(Cl)ccc([N+](=O)[O-])c1Cl
inactive: [8] 88 % of control | [9] 95 % of control | [10] 92 % of control

COc1ccc(Cl)cc1NC(=O)N/N=C(\C)CC(C)C
inactive: [4] 91 % of control | [6] 97 % of control | [5] 91 % of control | [7] 101 % of control | dose: 400.0 mg/kg/injection, schedule: Q04DX003 (ip), vehicle: saline with Tween-80 101 % of control

COc1ccc(C(=O)Nc2ccccc2SC)cc1
inactive: [11] 99 % of control | [12] 96 % of control | [13] 102 % of control

O=C(NC(=S)Nc1ccc(F)cc1)c1cccc2ccccc12
inactive: [14] 96 % of control | [8] 104 % of control | [15] 91 % of control | [9] 100 % of control | [16] 101 % of control | [10] 97 % of control

CS(=O)(=O)Oc1c(Cl)cc(S(=O)(=O)F)cc1Cl
inactive: [14] 104 % of control | [15] 102 % of control

CN1C(=O)CCN(CCN2CCC(=O)N(C)C2=S)C1=S
inactive: [11] 114 % of control | [12] 103 % of control | [13] 96 % of control

CCOC(=O)c1cnc(SC)nc1NC
inactive: [8] 97 % of control | [9] 99 % of control | [10] 111 % of control

CS(=O)(=O)NC1=NCCN1[N+](=O)[O-]
inactive: dose: 10.0 mg/kg/injection, schedule: Q01DX009 (ip), vehicle: Klucel (hydroxypropylcellulose) (HPC) 88 % of control | dose: 20.0 mg/kg/injection, schedule: Q01DX009 (ip), vehicle: Klucel (hydroxypropylcellulose) (HPC) 91 % of control | dose: 20.0 mg/kg/injection, schedule: Q04DX003 (ip), vehicle: Klucel (hydroxypropylcellulose) (HPC) 98 % of control | dose: 40.0 mg/kg/injection, schedule: Q01DX009 (ip), vehicle: Klucel (hydroxypropylcellulose) (HPC) 98 % of control | dose: 40.0 mg/kg/injection, schedule: Q04DX003 (ip), vehicle: Klucel (hydroxypropylcellulose) (HPC) 101 % of control

C[Si](C)(C)C1C2c3ccccc3C1C1(C#N)C(=O)C(Cl)=C(Cl)C(=O)C21C#N (stereo not drawn)
inactive: [6] 93 % of control

O=C(Nc1nc(Cl)nc(Cl)n1)N1CCOCC1
inactive: dose: 12.5 mg/kg/injection, schedule: Q04DX003 (ip), vehicle: saline with Tween-80 95 % of control | dose: 25.0 mg/kg/injection, schedule: Q01DX009 (ip), vehicle: saline with Tween-80 113 % of control | dose: 25.0 mg/kg/injection, schedule: Q04DX003 (ip), vehicle: saline with Tween-80 101 % of control

O=C(O)COc1ccc(Cl)cc1Cl
inactive: dose: 100.0 mg/kg/injection, schedule: Q01DX009 (ip), vehicle: saline 100 % of control | dose: 200.0 mg/kg/injection, schedule: Q01DX009 (ip), vehicle: saline 100 % of control

CC(C)(Cc1c[nH]c2ccccc12)NC(=O)c1ccccc1
inactive: [14] 90 % of control | [8] 100 % of control | [9] 98 % of control | [16] 92 % of control | [10] 98 % of control

CCC(C(=O)Cl)c1ccc(-c2ccccc2)cc1 (stereo not drawn)
inactive: [17] 96 % of control | [1] 96 % of control | [2] 96 % of control

COC1CC(C)C(Cl)C(C)C1/C=C/C(=O)O (stereo not drawn)
inactive: [17] 101 % of control | [1] 94 % of control | [2] 94 % of control

O=[N+]([O-])c1ccccc1N=Nc1c(O)[nH]c2ccc(S(=O)(=O)O)cc12
inactive: dose: 100.0 mg/kg/injection, schedule: Q01DX001 (ip), vehicle: acetone 94 % of control | dose: 200.0 mg/kg/injection, schedule: Q01DX001 (ip), vehicle: acetone 92 % of control | dose: 400.0 mg/kg/injection, schedule: Q01DX001 (ip), vehicle: acetone 100 % of control

[Se]=P(N1CCCCC1)(N1CCCCC1)N1CCCCC1
inactive: dose: 25.0 mg/kg/injection, schedule: Q01DX009 (ip), vehicle: Klucel (hydroxypropylcellulose) (HPC) 98 % of control | dose: 50.0 mg/kg/injection, schedule: Q01DX009 (ip), vehicle: Klucel (hydroxypropylcellulose) (HPC) 104 % of control | [14] 87 % of control

N#CC(c1ccccc1)C(c1ccccc1)c1ccccc1 (stereo not drawn)
inactive: [18] 102 % of control | [19] 102 % of control | [20] 98 % of control | [21] 98 % of control

CC1=CCC(=O)O1
inactive: [18] 100 % of control | [3] 94 % of control | [19] 100 % of control | [4] 97 % of control | [20] 97 % of control | [5] 94 % of control | [21] 97 % of control

CN(C)C(=O)c1cccc([N+](=O)[O-])c1
inactive: [6] 97 % of control | [7] 94 % of control

C=C(C)C1C=CC(O)=C2C(=O)CCC(C)C21C (stereo not drawn)
inactive: dose: 25.0 mg/kg/injection, schedule: Q04DX003 (ip), vehicle: saline 100 % of control | dose: 50.0 mg/kg/injection, schedule: Q04DX003 (ip), vehicle: saline 100 % of control | dose: 100.0 mg/kg/injection, schedule: Q04DX003 (ip), vehicle: saline 100 % of control

N#CSCc1ccc(CSC#N)c(Br)c1
inactive: dose: 75.0 mg/kg/injection, schedule: Q01DX009 (ip), vehicle: saline 88 % of control

COC(=O)C1=C2c3ccccc3NC(=O)N2NC1C(=O)OC (stereo not drawn)
inactive: dose: 50.0 mg/kg/injection, schedule: Q04DX002 (ip), vehicle: saline 108 % of control | dose: 100.0 mg/kg/injection, schedule: Q04DX002 (ip), vehicle: saline 90 % of control | dose: 200.0 mg/kg/injection, schedule: Q04DX002 (ip), vehicle: saline 90 % of control

COc1cc(/C=N/NC(C)=O)ccc1O
inactive: [3] 97 % of control | [4] 94 % of control | [5] 110 % of control

Cc1ccc(C(C)C)c(OCC2C(=O)C3CCN2CC3)c1 (stereo not drawn)
inactive: dose: 12.5 mg/kg/injection, schedule: Q04DX003 (ip), vehicle: Klucel (hydroxypropylcellulose) (HPC) 101 % of control | dose: 25.0 mg/kg/injection, schedule: Q04DX003 (ip), vehicle: Klucel (hydroxypropylcellulose) (HPC) 101 % of control | dose: 50.0 mg/kg/injection, schedule: Q04DX003 (ip), vehicle: Klucel (hydroxypropylcellulose) (HPC) 95 % of control

O=C(O)CCCC1CCc2ccccc2C1 (stereo not drawn)
inactive: dose: 100.0 mg/kg/injection, schedule: Q01DX001 (ip), vehicle: Klucel (hydroxypropylcellulose) (HPC) 104 % of control | dose: 200.0 mg/kg/injection, schedule: Q01DX001 (ip), vehicle: Klucel (hydroxypropylcellulose) (HPC) 102 % of control | dose: 400.0 mg/kg/injection, schedule: Q01DX001 (ip), vehicle: Klucel (hydroxypropylcellulose) (HPC) 103 % of control
